Source: US20100204343A1, “3-(4-HYDROXY-3-METHOXYPHENYL)-1-(4-HYDROXYPHENYL)-1-PROPANONE AND ITS USE AS ANTIOXIDANT” (SYMRISE GmbH & Co. KG, priority 2007, published 2010)
Values after ≈ are worked out from the molar mass of the structure shown.

Columns and labels:
[1] = ABTS assay, antioxidant capacity (cell free in vitro test); assay type: biochemical; conditions: ABTS discolouration measured photometrically at 734 nm; 96-well plates, 5 concentrations
Description: The antioxidant capacity of 3-(4-hydroxy-3-methoxyphenyl)-1-(4-hydroxyphenyl)-1-propanone of formula (I) disclosed here was evaluated with the ABTS assay, a cell free in vitro test. The assay principle bases on the chemical reduction being accompanied by discolouration of the green coloured cationic radical 2,2′-Azinobis(3-ethylbenzothiazoline 6-sulfonic acid) (ABTS^+) by antioxidants. The grade of discolouration can be measured photometrically at 734 nm. The compound of formula (I) as well as standard antioxidants like Trolox, a water soluble alpha-tocopherol analog and green tea extract were tested on 96-well microtiter plates at 5 concentrations. Each concentration was tested in double in two independent experiments. IC50 values for the compound of formula (I) as well as for the comparative examples are depicted in table 1.
Therefore, the compound of formula (I) is a highly suitable new product either to protect biological systems from damage caused by free radicals of different type and origin or to extend the shelf life of products comprising highly unstable, easily oxidising molecules.

Stability studies = assay type: physicochemical; conditions: in contrast to common antioxidants like Trolox, alpha-tocopherol or green tea extract

IC50 [1] [µg/mL]	stability (Stability studies)	SMILES
6 (≈ 24 µM)	–	Cc1c(C)c2c(c(C)c1O)CCC(C)(C(=O)O)O2 (stereo not drawn) [Trolox, 6-hydroxy-2,5,7,8-tetramethylchroman-2-carboxylic acid, reference compound]
5 (≈ 18.4 µM)	highly stable	COc1cc(CCC(=O)c2ccc(O)cc2)ccc1O [3-(4-hydroxy-3-methoxyphenyl)-1-(4-hydroxyphenyl)-1-propanone]
